Reference: US20250361233A1, “Compounds For Activating Serotonin Receptor” (PSYLO PTY LTD, priority 2023, published 2025)

Tests used:
Format in all cases: cell-based
5-HT2B receptor = biological target: T1, 5-HT2B receptor (Homo sapiens, UniProt P41595); test: 5-HT2B activation in a similar assay at a single 10 μM concentration
T1 construct: host or cells: CHO-K1
Description: Activation data are provided in a similar assay tested at a single 10 μM concentration.

5-HT2A receptor = biological target: T2, 5-HT2A receptor (Homo sapiens, UniProt P28223); test: FLIPR Ca2+ flux functional assay, agonist activity at 5-HT2A; settings: stably transfected HEK293 cells
T2 construct: host or cells: HEK293
T2 sequence (P28223 whole entry): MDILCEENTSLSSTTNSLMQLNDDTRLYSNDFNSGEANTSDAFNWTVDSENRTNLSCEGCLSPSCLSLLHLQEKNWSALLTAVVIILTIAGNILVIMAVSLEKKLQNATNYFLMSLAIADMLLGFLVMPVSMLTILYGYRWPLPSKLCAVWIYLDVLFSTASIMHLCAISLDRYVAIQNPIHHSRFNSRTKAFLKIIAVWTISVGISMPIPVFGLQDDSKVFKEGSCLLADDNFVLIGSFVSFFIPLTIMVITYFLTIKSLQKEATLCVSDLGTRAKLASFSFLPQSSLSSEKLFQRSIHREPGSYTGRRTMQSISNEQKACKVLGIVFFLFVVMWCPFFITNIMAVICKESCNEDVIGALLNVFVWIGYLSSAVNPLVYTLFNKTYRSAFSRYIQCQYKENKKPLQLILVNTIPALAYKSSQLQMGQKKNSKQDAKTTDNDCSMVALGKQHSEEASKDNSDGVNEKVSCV
Description: (§1) Functional assays 5-HT2A, 5-HT2B and 5-HT2C Receptors
(§2) Activity at 5-HT2A, 5-HT2B and 5-HT2C receptors was determined using a FLIPR Ca2+ flux assay at WuXi AppTec Co. Ltd. (Hong Kong) Discovery Biology Unit according to their standard protocols. Briefly, stably transfected cells expressing the receptor of interest (HEK293 for 5-HT2A and 5-HT2C; CHO-K1 for 5-HT2B) were grown and plated in a 384 well plate and incubated at 37° C. and 5% CO2 overnight. A 250 mM stock solution of probenecid in FLIPR calcium assay buffer (10 mL) was freshly prepared and combined with a fluorescent dye (Fluo-4 Direct) to give a final assay concentration of 2.5 mM. Reference compounds were 4-fold serially diluted and the screening compounds were 3-fold serially diluted in 100% DMSO for 10 points using Agilent Bravo, and 750 nL was added to a 384 well compound plate using Echo along with 30 μL assay buffer. The fluorescent dye was then added to the assay plate along with assay buffer to a final volume of 40 μL. The cell plate was incubated for 50 min at 37° C. and 5% CO2 and placed into the FLIPR Tetra along with the compound plate. 10 μL of references and compounds were then transferred from the compound plate into the cell plate and the fluorescent signal was read.

5-HT2C receptor = biological target: T3, 5-HT2C receptor (Homo sapiens, UniProt P28335); test: FLIPR Ca2+ flux functional assay, agonist activity at 5-HT2C; settings: stably transfected HEK293 cells
T3 construct: host or cells: HEK293
T3 sequence (P28335 33-458): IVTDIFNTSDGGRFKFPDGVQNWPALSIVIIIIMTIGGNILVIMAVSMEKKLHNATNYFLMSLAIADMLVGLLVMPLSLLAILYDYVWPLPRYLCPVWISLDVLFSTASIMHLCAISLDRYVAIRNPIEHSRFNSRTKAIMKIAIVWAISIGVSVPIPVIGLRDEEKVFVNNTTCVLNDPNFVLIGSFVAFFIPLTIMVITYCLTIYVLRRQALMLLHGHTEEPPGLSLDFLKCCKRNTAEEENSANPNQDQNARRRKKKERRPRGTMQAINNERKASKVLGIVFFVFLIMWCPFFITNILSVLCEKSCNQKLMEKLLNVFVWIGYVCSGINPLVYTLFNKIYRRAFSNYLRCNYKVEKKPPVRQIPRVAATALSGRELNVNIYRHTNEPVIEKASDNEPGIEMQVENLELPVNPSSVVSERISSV
Description: as §1, §2

T1 sequence (P41595 whole entry): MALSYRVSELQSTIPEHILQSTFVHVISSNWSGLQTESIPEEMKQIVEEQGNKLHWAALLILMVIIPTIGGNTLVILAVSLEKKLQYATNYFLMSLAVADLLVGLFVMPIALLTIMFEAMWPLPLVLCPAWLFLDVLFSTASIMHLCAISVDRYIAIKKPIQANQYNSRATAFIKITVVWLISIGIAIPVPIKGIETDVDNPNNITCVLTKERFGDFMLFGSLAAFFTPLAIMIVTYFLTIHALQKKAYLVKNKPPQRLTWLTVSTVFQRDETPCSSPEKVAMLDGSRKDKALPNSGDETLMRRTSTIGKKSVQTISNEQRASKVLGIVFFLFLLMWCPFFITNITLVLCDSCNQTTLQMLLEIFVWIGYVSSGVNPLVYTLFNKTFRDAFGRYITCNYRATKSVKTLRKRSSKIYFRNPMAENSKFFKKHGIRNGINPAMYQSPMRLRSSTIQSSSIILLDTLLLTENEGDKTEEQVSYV

Compound | 5-HT2B % Activation @ 10 μM (5-HT2B receptor) | EC50 (5-HT2A receptor) | Emax (5-HT2A receptor) | EC50 (5-HT2C receptor) | Emax (5-HT2C receptor)
C[C@H]1CCCN1CCc1c[nH]c2ncc(F)cc12 [Compound S51, (S)-5-fluoro-3-(2-(2-methylpyrrolidin-1-yl)ethyl)-1H-pyrrolo[2,3-b]pyridine] | 0% | 394 nM | 86% | > 10000 nM | 2%
CCN(C)CCc1c[nH]c2ncc(Cl)cc12 [Compound S52, 2-(5-chloro-1H-pyrrolo[2,3-b]pyridin-3-yl)-N-ethyl-N-methylethan-1-amine] | 3% | 149 nM | 61% | 1950 nM | 49%
CC(C)N(C)CCc1c[nH]c2ncc(Cl)cc12 [Compound S53, N-(2-(5-chloro-1H-pyrrolo[2,3-b]pyridin-3-yl)ethyl)-N-methylpropan-2-amine] | 26% | 115 nM | 84% | 2580 nM | 71%
CCN(C)CCc1c[nH]c2ncc(Br)cc12 [Compound S54, 2-(5-bromo-1H-pyrrolo[2,3-b]pyridin-3-yl)-N-ethyl-N-methylethan-1-amine] | 1% | 223 nM | 69% | > 10000 nM | 19%
CC(C)N(C)CCc1c[nH]c2ncc(Br)cc12 [Compound S55, N-(2-(5-bromo-1H-pyrrolo[2,3-b]pyridin-3-yl)ethyl)-N-methylpropan-2-amine] | 4% | 158 nM | 73% | 3590 nM | 34%
CN(CCc1c[nH]c2ncc(Br)cc12)C1CC1 [Compound S56, N-(2-(5-bromo-1H-pyrrolo[2,3-b]pyridin-3-yl)ethyl)-N-methylcyclopropanamine] | 2% | 226 nM | 54% | 1850 nM | 45%
Brc1cnc2[nH]cc(CCN3CCCC3)c2c1 [Compound S57, 5-bromo-3-(2-(pyrrolidin-1-yl)ethyl)-1H-pyrrolo[2,3-b]pyridine] | 12% | 897 nM | 86% | 3480 nM | 62%
Brc1cnc2[nH]cc(CCN3CCC3)c2c1 [Compound S58, 3-(2-(azetidin-1-yl)ethyl)-5-bromo-1H-pyrrolo[2,3-b]pyridine] | 3% | 124 nM | 79% | 231 nM | 67%
CC1CCN1CCc1c[nH]c2ncc(Br)cc12 (centres unmarked) [Compound S59, 5-bromo-3-(2-(2-methylazetidin-1-yl)ethyl)-1H-pyrrolo[2,3-b]pyridine] | 0% | 410 nM | 69% | > 10000 nM | 19%
Fc1ccccc1CNCCc1c[nH]c2ncc(Br)cc12 [Compound S60, 2-(5-bromo-1H-pyrrolo[2,3-b]pyridin-3-yl)-N-(2-fluorobenzyl)ethan-1-amine] | 0% | 285 nM | 66% | 1790 nM | 63%
Fc1cccc(CNCCc2c[nH]c3ncc(Br)cc23)c1 [Compound S61, 2-(5-bromo-1H-pyrrolo[2,3-b]pyridin-3-yl)-N-(3-fluorobenzyl)ethan-1-amine] | 0% | 74.7 nM | 65% | 1920 nM | 73%
COc1ccccc1CNCCc1c[nH]c2ncc(Br)cc12 [Compound S62, 2-(5-bromo-1H-pyrrolo[2,3-b]pyridin-3-yl)-N-(2-methoxybenzyl)ethan-1-amine] | 1% | 7.86 nM | 78% | 480 nM | 85%
COc1cccc(CNCCc2c[nH]c3ncc(Br)cc23)c1 [Compound S63, 2-(5-bromo-1H-pyrrolo[2,3-b]pyridin-3-yl)-N-(3-methoxybenzyl)ethan-1-amine] | 0% | 104 nM | 63% | 2970 nM | 48%
CCN(C)CCc1c[nH]c2ncc(OC(F)(F)F)cc12 [Compound S64, N-ethyl-N-methyl-2-(5-(trifluoromethoxy)-1H-pyrrolo[2,3-b]pyridin-3-yl)ethan-1-amine] | 1% | 1670 nM | 47% | > 10000 nM | 0%
CC(C)N(C)CCc1c[nH]c2ncc(OC(F)(F)F)cc12 [Compound S65, N-methyl-N-(2-(5-(trifluoromethoxy)-1H-pyrrolo[2,3-b]pyridin-3-yl)ethyl)propan-2-amine] | 1% | 665 nM | 73% | > 10000 nM | 0%
CCN(C)CCc1c[nH]c2ncc(C#N)cc12 [Compound S66, 3-(2-(ethyl(methyl)amino)ethyl)-1H-pyrrolo[2,3-b]pyridine-5-carbonitrile] | 0% | 1170 nM | 65% | > 10000 nM | 1%
CC(C)N(C)CCc1c[nH]c2ncc(C#N)cc12 [Compound S67, 3-(2-(isopropyl(methyl)amino)ethyl)-1H-pyrrolo[2,3-b]pyridine-5-carbonitrile] | 4% | 609 nM | 80% | > 10000 nM | 2%
CN(CCc1c[nH]c2ncc(C#N)cc12)C1CC1 [Compound S68, 3-(2-(cyclopropyl(methyl)amino)ethyl)-1H-pyrrolo[2,3-b]pyridine-5-carbonitrile] | 11% | 566 nM | 70% | 4570 nM | 44%
N#Cc1cnc2[nH]cc(CCN3CCCC3)c2c1 [Compound S69, 3-(2-(pyrrolidin-1-yl)ethyl)-1H-pyrrolo[2,3-b]pyridine-5-carbonitrile] | 0% | 1470 nM | 86% | > 10000 nM | 0%
N#Cc1cnc2[nH]cc(CCN3CCC3)c2c1 [Compound S70, 3-(2-(azetidin-1-yl)ethyl)-1H-pyrrolo[2,3-b]pyridine-5-carbonitrile] | 0% | 681 nM | 78% | > 10000 nM | 16%
CC1CCN1CCc1c[nH]c2ncc(C#N)cc12 (centres unmarked) [Compound S71, 3-(2-(2-methylazetidin-1-yl)ethyl)-1H-pyrrolo[2,3-b]pyridine-5-carbonitrile] | 0% | 1140 nM | 81% | > 10000 nM | 9%
N#Cc1cnc2[nH]cc(CCNCc3ccccc3F)c2c1 [Compound S72, 3-(2-((2-fluorobenzyl)amino)ethyl)-1H-pyrrolo[2,3-b]pyridine-5-carbonitrile] | 0% | 179 nM | 70% | 5070 nM | 47%
N#Cc1cnc2[nH]cc(CCNCc3cccc(F)c3)c2c1 [Compound S73, 3-(2-((3-fluorobenzyl)amino)ethyl)-1H-pyrrolo[2,3-b]pyridine-5-carbonitrile] | 2% | 134 nM | 66% | 7430 nM | 43%
COc1ccccc1CNCCc1c[nH]c2ncc(C#N)cc12 [Compound S74, 3-(2-((2-methoxybenzyl)amino)ethyl)-1H-pyrrolo[2,3-b]pyridine-5-carbonitrile] | 15% | 7.7 nM | 93% | 1880 nM | 88%
COc1cccc(CNCCc2c[nH]c3ncc(C#N)cc23)c1 [Compound S75, 3-(2-((3-methoxybenzyl)amino)ethyl)-1H-pyrrolo[2,3-b]pyridine-5-carbonitrile] | 1% | 44.4 nM | 79% | 3620 nM | 46%
